# Source: US7683163B2, “Colchicoside analogues” (priority 2003, dated 2010)
# Tests used:
# [1] = tested on: Swiss male mice; experiment: rota-rod test (muscle relaxant activity); assay type: in vivo; conditions: for Resistance time (sec. M ± S.E.): thirty minutes before the test
# Experimental: Muscle relaxant activity was evaluated with the rota-rod test. Swiss male mice weighing 20-25 g were treated intraperitoneally with the β-D isomer of compound (Ib) at doses of 1-3-10 mg/kg, thirty minutes before the test. Relaxant activity on striated muscles was evaluated by testing the resistance of the mice to the stimuli of a rotating plane revolving at increasing rate, from 2 to 50 r.p.m.
# [2] = acute toxicity (DL50 i.p.); conditions: for DL50/DE50: toxic/active dose ratio
# [3] = rota-rod, mice, dose 1 mg/Kg i.p.
# [4] = rota-rod, mice, dose 3 mg/Kg i.p.
# [5] = rota-rod, mice, dose 10 mg/Kg i.p.
# [6] = rota-rod, mice, i.p., Table 1, with limits in brackets
Structure (SMILES),DE50 ([1]; Table 2),"muscle relaxant activity compared with thiocolchicoside ([1]; rota-rod, mice, 1-3-10 mg/kg i.p.)","Resistance time (sec. M ± S.E.) [1, 3]","Resistance time (sec. M ± S.E.) [1, 4]","Resistance time (sec. M ± S.E.) [1, 5]","DE50 [1, 6]",DL50 ([2]; Table 2),DL50 ([2]; i.p.),DL50/DE50 ([2]; i.p.)
"COc1c(O[C@@H]2OC[C@@H](O)[C@H](O)[C@H]2O)cc2c(c1OC)-c1ccc(SC)c(=O)cc1C(NC(C)=O)CC2 (single isomer, unassigned) [Compound (Ib) isomer β-D, 3-O-β-D-xylopyranosyl-3-O-demethylthiocolchicine]",2.23 mg/kg i.p.,more active than thiocolchicoside,270 ± 19 s,175 ± 14 s,80 ± 10 s,2.23 (1.84-2.82) mg/Kg,80 mg/kg i.p.,80 (63-94) mg/kg,35.87
"COc1c(O[C@@H]2O[C@H](CO)[C@@H](O)[C@H](O)[C@H]2O)cc2c(c1OC)-c1ccc(SC)c(=O)cc1[C@@H](NC(C)=O)CC2 [Thiocolchicoside isomer β-D, 3-demethyl-thiocolchicine glucoside, reference compound]",4.47 mg/kg i.p.,–,345 ± 20 s,265 ± 17 s,110 ± 12 s,4.47 (3.16-7.01) mg/Kg,20 mg/kg i.p.,20 mg/kg,4.47
